Measurements reported in PMC5438368, “Characterization of TRPA channels in the starfish Patiria pectinifera: involvement of thermally activated TRPA1 in thermotaxis in marine planktonic larvae” (Scientific Reports, 2017).

Legend:
PpTRPA1 [1] = biological target: T1, PpTRPA1 (Patiria pectinifera, UniProt A0A1Y1C7R6); assay: two-electrode voltage clamp, Xenopus laevis oocytes; type: cell-based
T1 construct: cRNA in Xenopus laevis oocytes; no tag told; PCR primers imply N-terminus MEGDE and C-terminus EHDGSNTA
T1 sequence (A0A1Y1C7R6 1-1200): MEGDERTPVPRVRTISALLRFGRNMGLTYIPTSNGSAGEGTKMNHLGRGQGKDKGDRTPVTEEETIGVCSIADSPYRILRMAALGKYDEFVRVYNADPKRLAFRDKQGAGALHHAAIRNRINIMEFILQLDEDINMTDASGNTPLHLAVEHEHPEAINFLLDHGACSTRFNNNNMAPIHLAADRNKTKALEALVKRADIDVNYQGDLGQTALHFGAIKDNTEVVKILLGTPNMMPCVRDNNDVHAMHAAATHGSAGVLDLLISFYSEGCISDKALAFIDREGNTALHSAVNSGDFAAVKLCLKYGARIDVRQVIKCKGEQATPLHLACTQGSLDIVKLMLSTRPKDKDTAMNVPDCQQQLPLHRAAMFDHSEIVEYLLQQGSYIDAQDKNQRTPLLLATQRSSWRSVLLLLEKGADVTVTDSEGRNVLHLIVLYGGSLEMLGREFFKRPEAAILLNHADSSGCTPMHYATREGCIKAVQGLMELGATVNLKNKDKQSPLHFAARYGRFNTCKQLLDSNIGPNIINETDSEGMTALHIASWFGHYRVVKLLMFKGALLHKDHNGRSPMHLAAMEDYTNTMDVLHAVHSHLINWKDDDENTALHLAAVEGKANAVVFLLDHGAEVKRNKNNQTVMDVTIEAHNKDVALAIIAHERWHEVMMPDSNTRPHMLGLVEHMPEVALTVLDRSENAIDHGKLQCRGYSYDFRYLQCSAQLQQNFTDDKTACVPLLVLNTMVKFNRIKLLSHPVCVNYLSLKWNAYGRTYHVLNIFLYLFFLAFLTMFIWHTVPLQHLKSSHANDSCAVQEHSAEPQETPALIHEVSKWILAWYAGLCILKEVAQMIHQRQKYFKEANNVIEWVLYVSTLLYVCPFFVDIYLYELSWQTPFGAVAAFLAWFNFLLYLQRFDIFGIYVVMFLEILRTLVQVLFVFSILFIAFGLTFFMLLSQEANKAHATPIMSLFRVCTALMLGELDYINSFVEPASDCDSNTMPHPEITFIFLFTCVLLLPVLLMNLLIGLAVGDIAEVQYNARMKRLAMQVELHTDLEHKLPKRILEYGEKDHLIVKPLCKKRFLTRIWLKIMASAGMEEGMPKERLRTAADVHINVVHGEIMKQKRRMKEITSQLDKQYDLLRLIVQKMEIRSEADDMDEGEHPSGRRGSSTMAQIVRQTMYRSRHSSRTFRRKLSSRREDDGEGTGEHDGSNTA

PpTRPA1 [2] = biological target: T1, PpTRPA1; assay: as above; type: cell-based; conditions: agonist; ND96 bath, pH 7.4; -60 mV; n = 3; cinnamaldehyde concentration not in text

Compound | EC50 (PpTRPA1 [1]) [µM] | two-electrode voltage clamp, Xenopus laevis oocytes (PpTRPA1 [2])
C=CCN=C=S [AITC, allyl isothiocyanate] | 117 | 
O=CC=Cc1ccccc1 [CA, cinnamaldehyde] |  | Cinnamaldehyde (CA), another TRPA1 agonist, also evoked inward currents in X. laevis oocytes expressing PpTRPA1
